# Where a name gives a salt, the structure may show the parent alone.
# Columns and labels:
# mouse TAAR1 = mouse TAAR1 (Mus musculus (Mouse), UniProt Q923Y8); experiment: Radioligand binding assay on mouse TAAR1; settings: membranes of HEK-293 cells stably expressing mouse TAAR1; first value of cell mouse/rat
# Method: (§1) Construction of TAAR Expression Plasmids and Stably Transfected Cell Lines
# (§2) For the construction of expression plasmids the coding sequences of human, rat and mouse TAAR 1 were amplified from genomic DNA essentially as described by Lindemann et al.. The Expand High Fidelity PCR System (Roche Diagnostics) was used with 1.5 mM Mg^2+ and purified PCR products were cloned into pCR2.1-TOPO cloning vector (Invitrogen) following the instructions of the manufacturer. PCR products were subcloned into the pIRESneo2 vector (BD Clontech, Palo Alto, Calif.), and expression vectors were sequence verified before introduction in cell lines.
# (§3) HEK293 cells (ATCC # CRL-1573) were cultured essentially as described by Lindemann et al. (2005). For the generation of stably transfected cell lines HEK293 cells were transfected with the pIRESneo2 expression plasmids containing the TAAR coding sequences (described above) with Lipofectamine 2000 (Invitrogen) according to the instructions of the manufacturer, and 24 hrs post transfection the culture medium was supplemented with 1 mg/ml G418 (Sigma, Buchs, Switzerland). After a culture period of about 10 d clones were isolated, expanded and tested for responsiveness to trace amines (all compounds purchased from Sigma) with the cAMP Biotrak Enzyme immunoassay (EIA) System (Amersham) following the non-acetylation EIA procedure provided by the manufacturer.
# Radioligand Binding Assay on Mouse TAAR1
# (§4) Membrane Preparation and Radioligand Binding.
# HEK-293 cells stably expressing mouse TAAR1 were maintained at 37° C. and 5% CO2 in DMEM high glucose medium, containing fetal calf serum (10%, heat inactivated for 30 min at 56° C.), penicillin/streptomycin (1%), and 375 μg/ml geneticin (Gibco). Cells were released from culture flasks using trypsin/EDTA, harvested, washed twice with ice-cold PBS (without Ca^2+ and Mg^2+), pelleted at 1,000 rpm for 5 min at 4° C., frozen and stored at −80° C. Frozen pellets were suspended in 20 ml HEPES-NaOH (20 mM, pH 7.4) containing 10 mM EDTA and homogenized with a Polytron (PT 6000, Kinematica) at 14,000 rpm for 20 s. The homogenate was centrifuged at 48,000×g for 30 min at 4° C. Subsequently, the supernatant was removed and discarded, and the pellet resuspended in 20 ml HEPES-NaOH (20 mM, pH 7.4) containing 0.1 mM EDTA using the Polytron (20 s at 14,000 rpm). This procedure was repeated and the final pellet resuspended in HEPES-NaOH containing 0.1 mM EDTA and homogenized using the Polytron. Typically, aliquots of 2 ml membrane portions were stored at −80° C. With each new membrane batch the dissociation constant (Kd) was determined via a saturation curve. The TAAR1 radioligand ^3[H]—(S)-4-[(ethyl-phenyl-amino)-methyl]-4,5-dihydro-oxazol-2-ylamine (described in WO 2008/098857) was used at a concentration equal to the calculated Kd value, that was usually around 0.7 nM, resulting in the binding of approximately 0.5% of the radioligand and a specific binding representing approximately 70% of the total binding. Nonspecific binding was defined as the amount of ^3[H]—(S)-4-[(ethyl-phenyl-amino)-methyl]-4,5-dihydro-oxazol-2-ylamine bound in the presence of 10 μM unlabeled ligand. All compounds were tested at a broad range of concentrations ([…]) in duplicates. […] The 96 deep well plates were incubated for 1 hr at 4° C. Incubations were terminated by rapid filtration through Unifilter-96 plates (Packard Instrument Company) and glass filters GF/C (Perkin Elmer) presoaked for 1 hr in polyethylenimine (0.3%) and washed 3 times with 1 ml of cold binding buffer. After addition of 45 μl of Microscint 40 (PerkinElmer) the Unifilter-96 plate was sealed and after 1 hr the radioactivity counted using a TopCount Microplate Scintillation Counter (Packard Instrument Company).
# rat TAAR1 = rat TAAR1 (Rattus norvegicus (Rat), UniProt Q923Y9); experiment: Radioligand binding assay on rat TAAR1; settings: membranes of HEK-293 cells stably expressing rat TAAR1; second value of cell mouse/rat
# Method: as §1, §2, §3
# Radioligand Binding Assay on rat TAAR1
# as §4
# HEK-293 cells stably expressing rat TAAR1 were maintained at 37° C. and 5% CO2 in DMEM high glucose medium, containing fetal calf serum (10%, heat inactivated for 30 min at 56° C.), penicillin/streptomycin (1%), and 375 μg/ml geneticin (Gibco). Cells were released from culture flasks using trypsin/EDTA, harvested, washed twice with ice-cold PBS (without Ca^2+ and Mg^2+), pelleted at 1,000 rpm for 5 min at 4° C., frozen and stored at −80° C. Frozen pellets were suspended in 20 ml HEPES-NaOH (20 mM, pH 7.4) containing 10 mM EDTA and homogenized with a Polytron (PT 6000, Kinematica) at 14,000 rpm for 20 s. The homogenate was centrifuged at 48,000×g for 30 min at 4° C. Subsequently, the supernatant was removed and discarded, and the pellet resuspended in 20 ml HEPES-NaOH (20 mM, pH 7.4) containing 0.1 mM EDTA using the Polytron (20 s at 14,000 rpm). This procedure was repeated and the final pellet resuspended in HEPES-NaOH containing 0.1 mM EDTA and homogenized using the Polytron. Typically, aliquots of 2 ml membrane portions were stored at −80° C. With each new membrane batch the dissociation constant (Kd) was determined via a saturation curve.
# Nonspecific binding was defined as the amount of ^3-[H]-(S)-4-[(ethyl-phenyl-amino)-methyl]-4,5-dihydro-oxazol-2-ylamine bound in the presence of 10 μM unlabeled ligand. All compounds were tested at a broad range of concentrations (10 pM to 10 μM) in duplicates. […] The 96 deep well plates were incubated for 1 hr at 4° C. Incubations were terminated by rapid filtration through Unifilter-96 plates (Packard Instrument Company) and glass filters GF/C (Perkin Elmer) presoaked for 1 hr in polyethylenimine (0.3%) and washed 3 times with 1 ml of cold binding buffer. After addition of 45 μl of Microscint 40 (PerkinElmer) the Unifilter-96 plate was sealed and after 1 hr the ratioactivity counted using a TopCount Microplate Scintillation Counter (Packard Instrument Company).
# rat TAAR1, sequence (Q923Y9 whole entry): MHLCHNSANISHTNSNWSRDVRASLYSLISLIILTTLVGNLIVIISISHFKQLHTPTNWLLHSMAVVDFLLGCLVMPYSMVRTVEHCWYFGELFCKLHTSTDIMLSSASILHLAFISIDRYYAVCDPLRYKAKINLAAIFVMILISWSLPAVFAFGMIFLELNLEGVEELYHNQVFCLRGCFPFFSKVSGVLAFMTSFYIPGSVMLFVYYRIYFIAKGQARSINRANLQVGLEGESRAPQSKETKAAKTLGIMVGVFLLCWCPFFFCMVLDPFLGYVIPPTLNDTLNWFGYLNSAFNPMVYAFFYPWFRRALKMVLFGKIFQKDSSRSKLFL
# mouse TAAR1, sequence (Q923Y8 whole entry): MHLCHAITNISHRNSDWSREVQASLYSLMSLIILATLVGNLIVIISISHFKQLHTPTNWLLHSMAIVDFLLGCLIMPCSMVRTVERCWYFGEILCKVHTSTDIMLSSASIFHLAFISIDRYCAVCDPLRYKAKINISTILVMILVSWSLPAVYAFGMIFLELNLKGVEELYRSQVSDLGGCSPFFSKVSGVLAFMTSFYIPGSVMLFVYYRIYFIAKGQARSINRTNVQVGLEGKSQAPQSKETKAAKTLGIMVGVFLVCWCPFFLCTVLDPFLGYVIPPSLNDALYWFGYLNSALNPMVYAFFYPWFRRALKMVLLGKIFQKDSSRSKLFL
Ki (mouse TAAR1) [µM],Ki (rat TAAR1) [µM],SMILES
0.0021,0.0042,"N#Cc1cccc(-c2cc(C(=O)Nc3ccc(C4CCNC4)cc3)[nH]n2)c1 (racemic) [Example 38, (rac) 3-(3-Cyanophenyl)-N-(4-(pyrrolidin-3-yl)phenyl)-1H-pyrazole-5-carboxamide hydrochloride]"
0.0023,0.0022,"Cn1nc(-c2ccc(F)cc2)cc1C(=O)Nc1ccc(C2CNCCO2)cc1 (stereo in doubt) [Example 22, (S)-3-(4-fluorophenyl)-1-methyl-N-(4-(morpholin-2-yl)phenyl)-1H-pyrazole-5-carboxamide hydrochloride]"
0.0003,0.0004,"O=C(Nc1ccc([C@H]2CNCCO2)cc1)c1cc(-c2cccc(Cl)c2)[nH]n1 [Example 2, (S)-3-(3-chlorophenyl)-N-(4-(morpholin-2-yl)phenyl)-1H-pyrazole-5-carboxamide hydrochloride]"
0.0072,0.0045,"Cn1nc(-c2ccccc2)cc1C(=O)Nc1ccc([C@H]2CNCCO2)cc1 [Example 5, (S)-1-methyl-N-(4-(morpholin-2-yl)phenyl)-3-phenyl-1H-pyrazole-5-carboxamide hydrochloride]"
0.0016,0.008,"Cc1c(-c2ccccc2)n[nH]c1C(=O)Nc1ccc([C@H]2CNCCO2)cc1 [Example 6, (S)-4-methyl-N-(4-(morpholin-2-yl)phenyl)-3-phenyl-1H-pyrazole-5-carboxamide hydrochloride]"
0.0014,0.014,"COc1ccccc1-c1cc(C(=O)Nc2ccc([C@H]3CNCCO3)cc2)[nH]n1 [Example 9, (S)-3-(2-methoxyphenyl)-N-(4-(morpholin-2-yl)phenyl)-1H-pyrazole-5-carboxamide hydrochloride]"
0.0005,0.0026,"O=C(Nc1ccc([C@H]2CNCCO2)cc1)c1cc(-c2ccccc2Cl)n[nH]1 [Example 10, (S)-3-(2-chlorophenyl)-N-(4-(morpholin-2-yl)phenyl)-1H-pyrazole-5-carboxamide hydrochloride]"
0.0026,0.0127,"COc1ccc(-c2cc(C(=O)Nc3ccc([C@H]4CNCCO4)cc3)[nH]n2)cc1OC [Example 11, (S)-3-(3,4-dimethoxyphenyl)-N-(4-(morpholin-2-yl)phenyl)-1H-pyrazole-5-carboxamide hydrochloride]"
0.0005,0.0004,"O=C(Nc1ccc([C@@H]2CNCCO2)cc1)c1cc(-c2ccc(Cl)cc2)n[nH]1 [Example 12, (R)-3-(4-chlorophenyl)-N-(4-(morpholin-2-yl)phenyl)-1H-pyrazole-5-carboxamide hydrochloride]"
0.0008,0.001,"O=C(Nc1ccc([C@@H]2CNCCO2)cc1)c1cc(-c2ccccc2Cl)n[nH]1 [Example 13, (R)-3-(2-chlorophenyl)-N-(4-(morpholin-2-yl)phenyl)-1H-pyrazole-5-carboxamide hydrochloride]"
0.0017,0.0028,"O=C(Nc1ccc([C@H]2CNCCO2)cc1)c1cc(-c2ccc(Cl)cc2)n[nH]1 [Example 14, (S)-3-(4-chlorophenyl)-N-(4-(morpholin-2-yl)phenyl)-1H-pyrazole-5-carboxamide hydrochloride]"
0.0006,0.0004,"O=C(Nc1ccc([C@@H]2CNCCO2)cc1)c1cc(-c2cccc(Cl)c2)n[nH]1 [Example 15, (R)-3-(3-chlorophenyl)-N-(4-(morpholin-2-yl)phenyl)-1H-pyrazole-5-carboxamide hydrochloride]"
0.0079,0.0028,"Cn1nc(-c2ccccc2)cc1C(=O)Nc1ccc([C@@H]2CNCCO2)cc1 [Example 19, (R)-1-methyl-N-(4-(morpholin-2-yl)phenyl)-3-phenyl-1H-pyrazole-5-carboxamide hydrochloride]"

SMILES,Ki (mouse TAAR1) [µM],Ki (rat TAAR1) [µM]
"O=C(Nc1ccc([C@H]2CNCCO2)cc1)c1cc(-c2ccccc2)[nH]n1 [Example 1, (S)—N-(4-(morpholin-2-yl)phenyl)-5-phenyl-1H-pyrazole-3-carboxamide hydrochloride]",0.0007,0.0043
"O=C(Nc1ccc([C@H]2CNCCO2)cc1)c1cc(-c2ccc(F)cc2)[nH]n1 [Example 3, (S)-3-(4-fluorophenyl)-N-(4-(morpholin-2-yl)phenyl)-1H-pyrazole-5-carboxamide hydrochloride]",0.0008,0.0027
"COc1cccc(-c2cc(C(=O)Nc3ccc([C@H]4CNCCO4)cc3)n[nH]2)c1 [Example 4, (S)-3-(3-methoxyphenyl)-N-(4-(morpholin-2-yl)phenyl)-1H-pyrazole-5-carboxamide hydrochloride]",0.001,0.0022
"COc1ccc(-c2cc(C(=O)Nc3ccc([C@H]4CNCCO4)cc3)[nH]n2)cc1 [Example 7, (S)-3-(4-methoxyphenyl)-N-(4-(morpholin-2-yl)phenyl)-1H-pyrazole-5-carboxamide hydrochloride]",0.0012,0.0049
"O=C(Nc1ccc([C@H]2CNCCO2)cc1)c1cc(-c2ccccc2F)n[nH]1 [Example 8, (S)-3-(2-fluorophenyl)-N-(4-(morpholin-2-yl)phenyl)-1H-pyrazole-5-carboxamide hydrochloride]",0.0009,0.0073
"COc1cccc(-c2cc(C(=O)Nc3ccc([C@@H]4CNCCO4)cc3)[nH]n2)c1 [Example 16, (R)-3-(3-methoxyphenyl)-N-(4-(morpholin-2-yl)phenyl)-1H-pyrazole-5-carboxamide hydrochloride]",0.0013,0.0014
"Cn1nc(-c2cccc(Cl)c2)cc1C(=O)Nc1ccc([C@H]2CNCCO2)cc1 [Example 17, (S)-3-(3-chlorophenyl)-1-methyl-N-(4-(morpholin-2-yl)phenyl)-1H-pyrazole-5-carboxamide hydrochloride]",0.0016,0.0024
"Cn1nc(C(=O)Nc2ccc([C@H]3CNCCO3)cc2)cc1-c1ccccc1 [Example 18, (S)-1-methyl-N-(4-(morpholin-2-yl)phenyl)-5-phenyl-1H-pyrazole-3-carboxamide hydrochloride]",0.0017,0.0254
